In article PMC10999543, “Identification of kinase modulators as host-directed therapeutics against intracellular methicillin-resistant Staphylococcus aureus” (Frontiers in Cellular and Infection Microbiology, 2024):
Like-named read-outs stand apart in the source and are kept apart here.

Experiments:
intracellular MRSA = assay type: cell-based, Staphylococcus aureus; conditions: for z-scoreMRSA+ mean: mean of 3 replicates; for z-scoreMRSA+ rep 1 / %GFP+ rep 1: replicate 1; for z-scoreMRSA+ rep 2 / %GFP+ rep 2: replicate 2; for z-scoreMRSA+ rep 3 / %GFP+ rep 3: replicate 3
How it was run: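 HeLa, MRSA-GFP at MOI ~6.8, 1 h infection; gentamicin 30 µg/ml for 15 min; inhibitor plus gentamicin 5 µg/ml overnight, 37°C/5% CO2; triplicate plates; FACS %GFP+ and cell count; hit = z ≤ -2 MRSA+, z ≥ -3 count.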

HeLa cells = test: Compound screen by flow cytometry: HeLa cell count as surrogate readout of cell viability (z-scoreHeLa); assay type: cell-based, human; conditions: for z-scoreHeLa mean: mean of 3 replicates; for z-scoreHeLa rep 1 / cell count rep 1: replicate 1; for z-scoreHeLa rep 2 / cell count rep 2: replicate 2; for z-scoreHeLa rep 3 / cell count rep 3: replicate 3
How it was run: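 HeLa cells were infected with GFP-MRSA (mean MOI 6.8 ± 4.6) for 1 h, and extracellular bacteria were killed with 30 µg/ml gentamicin. Cells were then incubated overnight with kinase inhibitors in 5 µg/ml gentamicin, in triplicate against DMSO controls. Flow-cytometric cell count served as a viability surrogate, expressed as a plate z-score.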

[1] = PKIS compound screen, Yes/No call
[2] = PKIS compound screen, Yes/No call (effect without cell death)
[3] = PKIS compounds raw data, MRSA-infected HeLa cells
[4] = PKIS compounds raw data, HeLa cell count
[5] = PKIS compound screen raw data, MRSA-infected HeLa cells
[6] = Yes/No: effect without cell death
[7] = compound screen, MRSA-infected HeLa cells
[8] = PKIS compound screen raw data, HeLa cell count
[9] = compound screen, HeLa cell count
[10] = PKIS compound screen, MRSA-infected HeLa cells
[11] = PKIS compound screen, HeLa cell count

Row | SMILES | effect (intracellular MRSA; [1]) | hit (intracellular MRSA; [2]) | z-scoreMRSA+ mean (intracellular MRSA; PKIS compound screen) | %GFP+ rep 1 (intracellular MRSA; [5]) | %GFP+ rep 2 (intracellular MRSA; [5]) | %GFP+ rep 3 (intracellular MRSA; [5]) | effect (intracellular MRSA; Yes/No call from z-scoreMRSA+) | hit (intracellular MRSA; [6]) | z-scoreMRSA+ mean (intracellular MRSA; [7]) | z-scoreMRSA+ rep 1 (intracellular MRSA; [7]) | z-scoreMRSA+ rep 2 (intracellular MRSA; [7]) | z-scoreMRSA+ rep 3 (intracellular MRSA; [7]) | cell count rep 1 (HeLa cells; [8]) | cell count rep 2 (HeLa cells; [8]) | cell count rep 3 (HeLa cells; [8]) | cell death (HeLa cells; Yes/No call from z-scoreHeLa) | z-scoreHeLa mean (HeLa cells; [9]) | z-scoreHeLa rep 1 (HeLa cells; [9]) | z-scoreHeLa rep 2 (HeLa cells; [9]) | z-scoreHeLa rep 3 (HeLa cells; [9]) | other results
1 | CN(C)S(=O)(=O)c1cc(-c2ccc3nccc(-c4cccc(S(N)(=O)=O)c4)c3c2)cnc1N [GSK1669921A] | No | No | -1.31 | – | – | – | – | – | – | – | – | – | – | – | – | – | – | – | – | – | z-scoreMRSA+ rep 1 (intracellular MRSA; PKIS compound screen): -1.39; z-scoreMRSA+ rep 2 (intracellular MRSA; PKIS compound screen): -1.10; z-scoreMRSA+ rep 3 (intracellular MRSA; PKIS compound screen): -1.42; %GFP+ rep 1 (intracellular MRSA; [3]): 19.9%; %GFP+ rep 2 (intracellular MRSA; [3]): 20.3%; %GFP+ rep 3 (intracellular MRSA; [3]): 19.6%; cell death (HeLa cells; [1]): No; z-scoreHeLa mean (HeLa cells; PKIS compound screen): -1.20; z-scoreHeLa rep 1 (HeLa cells; PKIS compound screen): -1.09; z-scoreHeLa rep 2 (HeLa cells; PKIS compound screen): -1.39; z-scoreHeLa rep 3 (HeLa cells; PKIS compound screen): -1.10; cell count rep 1 (HeLa cells; [4]): 4231; cell count rep 2 (HeLa cells; [4]): 3906; cell count rep 3 (HeLa cells; [4]): 3857
2 | Cc1cccc2c1NC(=O)C2=NNc1ccc(S(N)(=O)=O)cc1 [GW282536X] | – | – | – | 21.7% | 20.9% | 20.2% | No | No | -0.62 | -0.83 | -0.42 | -0.60 | 1823 | 2013 | 1046 | No | -2.08 | -1.82 | -1.76 | -2.65 | –
3 | COC(=O)Nc1nc2ccc(Oc3ccc(NC(=O)Nc4cc(C(F)(F)F)ccc4F)cn3)cc2[nH]1 [GW681170A] | – | – | – | 25.2% | 20.8% | 21.7% | No | No | -0.20 | -0.0173 | -0.44 | -0.15 | 5819 | 4937 | 6470 | No | 0.78 | 1.06 | 0.49 | 0.78 | –
4 | COc1cc(Nc2ncc3c(C)nc(-c4cc5ccccc5[nH]4)n3n2)cc(OC)c1OC [GW869516X] | No | No | -0.71 | – | – | – | – | – | – | – | – | – | – | – | – | – | – | – | – | – | z-scoreMRSA+ rep 1 (intracellular MRSA; PKIS compound screen): -0.87; z-scoreMRSA+ rep 2 (intracellular MRSA; PKIS compound screen): -0.43; z-scoreMRSA+ rep 3 (intracellular MRSA; PKIS compound screen): -0.83; %GFP+ rep 1 (intracellular MRSA; [3]): 22.6%; %GFP+ rep 2 (intracellular MRSA; [3]): 23.8%; %GFP+ rep 3 (intracellular MRSA; [3]): 22.8%; cell death (HeLa cells; [1]): No; z-scoreHeLa mean (HeLa cells; PKIS compound screen): 1.43; z-scoreHeLa rep 1 (HeLa cells; PKIS compound screen): 1.29; z-scoreHeLa rep 2 (HeLa cells; PKIS compound screen): 1.41; z-scoreHeLa rep 3 (HeLa cells; PKIS compound screen): 1.60; cell count rep 1 (HeLa cells; [4]): 8188; cell count rep 2 (HeLa cells; [4]): 8134; cell count rep 3 (HeLa cells; [4]): 8115
5 | Cc1nnc(-c2ccc(C)c(-c3ccc(C(=O)NCc4ccc(Cl)cc4)cc3)c2)o1 [GW708893X] | No | No | 0.76 | – | – | – | – | – | – | – | – | – | – | – | – | – | – | – | – | – | z-scoreMRSA+ rep 1 (intracellular MRSA; PKIS compound screen): 0.91; z-scoreMRSA+ rep 2 (intracellular MRSA; PKIS compound screen): 1.61; z-scoreMRSA+ rep 3 (intracellular MRSA; PKIS compound screen): -0.23; %GFP+ rep 1 (intracellular MRSA; [3]): 16.0%; %GFP+ rep 2 (intracellular MRSA; [3]): 18.3%; %GFP+ rep 3 (intracellular MRSA; [3]): 15.1%; cell death (HeLa cells; [1]): No; z-scoreHeLa mean (HeLa cells; PKIS compound screen): 0.63; z-scoreHeLa rep 1 (HeLa cells; PKIS compound screen): 0.34; z-scoreHeLa rep 2 (HeLa cells; PKIS compound screen): 1.23; z-scoreHeLa rep 3 (HeLa cells; PKIS compound screen): 0.31; cell count rep 1 (HeLa cells; [4]): 5153; cell count rep 2 (HeLa cells; [4]): 5899; cell count rep 3 (HeLa cells; [4]): 7607
6 | CNc1nc(-c2ccc3c(N)n[nH]c3c2)cc(N2C[C@@H](C(=O)NC3CCCCC3)OC[C@H]2C)n1 [GSK2375584A] | – | – | – | 21.4% | 23.1% | 26.2% | No | No | 1.02 | 0.70 | 1.01 | 1.36 | 30717 | 29074 | 21029 | No | 0.38 | 0.09 | 0.65 | 0.41 | –
7 | CS(=O)(=O)Cc1ccc(Nc2nccc(-c3c(-c4cccc(NC(=O)C5CCCCC5)c4)nn4ncccc34)n2)cc1 [GSK350559A] | – | – | – | 15.3% | 15.9% | 16.3% | No | No | -1.91 | -2.32 | -1.63 | -1.77 | 4919 | 4109 | 4941 | No | 0.0244 | 0.41 | -0.15 | -0.19 | –
8 | COc1ccc(Nc2nccc(N3CCC(NC(=O)c4cc5ccccc5s4)C3)n2)cc1 (stereo not drawn) [GSK1379738A] | – | No | – | 23.4% | 24.0% | 25.7% | – | – | – | – | – | – | 35022 | 33049 | 42431 | – | – | – | – | – | z-scoreMRSA+ mean (intracellular MRSA; [10]): 1.73; z-scoreMRSA+ rep 1 (intracellular MRSA; [10]): 1.76; z-scoreMRSA+ rep 2 (intracellular MRSA; [10]): 1.65; z-scoreMRSA+ rep 3 (intracellular MRSA; [10]): 1.80; effect (intracellular MRSA; PKIS compound screen, Yes/No call on z-scoreMRSA+): No; z-scoreHeLa mean (HeLa cells; [11]): 0.75; z-scoreHeLa rep 1 (HeLa cells; [11]): 2.26; z-scoreHeLa rep 2 (HeLa cells; [11]): -0.32; z-scoreHeLa rep 3 (HeLa cells; [11]): 0.30; cell death (HeLa cells; PKIS compound screen, Yes/No call on z-scoreHeLa): No
9 | Cc1cc(N2CCC(NS(=O)(=O)c3ccc(F)cc3)CC2)nc(Nc2cccc(C#N)c2)n1 [GSK1653537A] | – | – | – | 23.5% | 20.6% | 22.3% | No | No | -0.29 | -0.41 | -0.49 | 0.03 | 5368 | 4678 | 5821 | No | 0.46 | 0.73 | 0.29 | 0.37 | –
